Measurements published in paper PMC5514907, “Targeting of the breast cancer microenvironment with a potent and linkable oxindole based antiangiogenic small molecule” (Oncotarget, 2017).
Entries after “also recorded” stand apart in the source; their conditions may differ. Read-outs that look alike come from different tables or passages of the source.

How the values were obtained:
KIT = target: T1, KIT (Homo sapiens, UniProt P10721); assay: Biochemical tyrosine kinase assay (trans-phosphorylation, GST-fusion protein); conditions: in vitro kinase activity, ± SD
T1 construct: 544-end; purchased Sigma Aldrich C0624
T1 sequence (P10721 544-976 limits assumed): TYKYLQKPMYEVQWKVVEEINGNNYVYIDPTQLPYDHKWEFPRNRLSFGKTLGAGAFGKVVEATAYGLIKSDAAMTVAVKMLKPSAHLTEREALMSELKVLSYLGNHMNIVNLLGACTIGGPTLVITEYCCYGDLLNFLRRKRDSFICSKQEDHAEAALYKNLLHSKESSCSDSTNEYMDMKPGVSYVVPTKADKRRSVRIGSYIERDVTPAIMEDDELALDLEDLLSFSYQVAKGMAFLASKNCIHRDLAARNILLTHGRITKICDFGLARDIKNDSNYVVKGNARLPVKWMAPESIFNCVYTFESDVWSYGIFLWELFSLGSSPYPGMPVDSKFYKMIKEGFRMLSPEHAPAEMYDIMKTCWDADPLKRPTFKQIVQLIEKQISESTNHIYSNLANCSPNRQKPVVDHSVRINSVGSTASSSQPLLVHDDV

[1] = Whole embryo LC-MS/MS biodistribution (bioaccumulation); assay type: in vivo, zebrafish; conditions: 24h post drug exposure, 50 μM, data not shown
T47D = assay: MTT cytotoxicity assay; assay type: cell-based; conditions: Homo sapiens
[2] = target: VEGFR-2, PDGFR-β, KIT, FLT3 and RET; assay: Biochemical tyrosine kinase assay, RTK panel summary; conditions: range over the RTK targets of sunitinib; read-out: IC50 over most of the RTKs
HCC1954 = assay: MTT cytotoxicity assay; assay type: cell-based; conditions: Homo sapiens
[3] = test system: E0771 BrCa murine cell line; assay: In vivo antitumor efficacy, syngeneic model, ectopic implantation; design: species or system C57BL/6 mice; conditions: 100 μmol/Kg daily IP
Description: (§1) Despite the efficacy and favourable safety profile of SAP in xenografted models of primary BrCa, a critical question that remained was its evaluation in a more clinically relevant disease model of BrCa that would involve interaction of cancer with the immune system, which is crucial for the progression of the disease.

HUVEC = assay: MTT cytotoxicity assay; assay type: cell-based; conditions: Homo sapiens
EGFR = target: T2, EGFR (Homo sapiens, UniProt P00533); assay: Biochemical tyrosine kinase assay (trans-phosphorylation, GST-fusion protein), negative control; conditions: in vitro kinase activity
T2 construct: 695-end; purchased Sigma Aldrich SRP5023
T2 sequence (P00533 695-1210 limits assumed): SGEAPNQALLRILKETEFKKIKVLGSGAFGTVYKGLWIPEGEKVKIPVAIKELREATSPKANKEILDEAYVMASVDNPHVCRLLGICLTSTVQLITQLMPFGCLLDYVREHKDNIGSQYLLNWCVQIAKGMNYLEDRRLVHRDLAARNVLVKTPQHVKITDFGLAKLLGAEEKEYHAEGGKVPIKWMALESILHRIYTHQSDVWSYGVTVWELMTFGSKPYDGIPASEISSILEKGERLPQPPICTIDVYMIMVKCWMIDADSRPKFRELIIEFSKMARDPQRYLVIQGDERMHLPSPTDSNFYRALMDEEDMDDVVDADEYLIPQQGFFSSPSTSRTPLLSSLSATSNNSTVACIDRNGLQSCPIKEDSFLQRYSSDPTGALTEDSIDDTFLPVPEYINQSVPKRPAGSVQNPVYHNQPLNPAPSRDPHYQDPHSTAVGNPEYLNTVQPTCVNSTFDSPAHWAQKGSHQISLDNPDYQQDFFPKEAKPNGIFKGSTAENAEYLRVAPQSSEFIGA

RET = target: T3, RET (Homo sapiens, UniProt P07949); assay: Biochemical tyrosine kinase assay (trans-phosphorylation, GST-fusion protein); conditions: in vitro kinase activity, ± SD
T3 construct: 658-end; purchased Sigma Aldrich R7782
T3 sequence (P07949 658-1063 limits assumed): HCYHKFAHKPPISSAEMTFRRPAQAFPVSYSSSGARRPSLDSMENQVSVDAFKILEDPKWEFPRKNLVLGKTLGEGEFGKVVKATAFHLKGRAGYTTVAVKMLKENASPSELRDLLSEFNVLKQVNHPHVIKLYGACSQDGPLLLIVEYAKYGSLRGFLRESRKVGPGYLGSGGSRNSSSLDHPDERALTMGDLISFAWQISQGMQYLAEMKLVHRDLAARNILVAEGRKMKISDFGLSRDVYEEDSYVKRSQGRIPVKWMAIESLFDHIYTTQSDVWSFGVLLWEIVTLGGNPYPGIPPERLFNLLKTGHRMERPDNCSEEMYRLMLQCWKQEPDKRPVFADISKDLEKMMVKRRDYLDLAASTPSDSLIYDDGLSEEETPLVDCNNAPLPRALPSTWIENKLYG

VEGFR-2 [4] = target: T4, VEGFR-2 (Homo sapiens, UniProt P35968); assay: Cellular ligand-dependent autophosphorylation assay (Western blot) in HUVEC; assay type: cell-based; design: host or cells: HUVEC; conditions: VEGF165 stimulated, ± SD
Target sequence in this assay (P35968 20-1356): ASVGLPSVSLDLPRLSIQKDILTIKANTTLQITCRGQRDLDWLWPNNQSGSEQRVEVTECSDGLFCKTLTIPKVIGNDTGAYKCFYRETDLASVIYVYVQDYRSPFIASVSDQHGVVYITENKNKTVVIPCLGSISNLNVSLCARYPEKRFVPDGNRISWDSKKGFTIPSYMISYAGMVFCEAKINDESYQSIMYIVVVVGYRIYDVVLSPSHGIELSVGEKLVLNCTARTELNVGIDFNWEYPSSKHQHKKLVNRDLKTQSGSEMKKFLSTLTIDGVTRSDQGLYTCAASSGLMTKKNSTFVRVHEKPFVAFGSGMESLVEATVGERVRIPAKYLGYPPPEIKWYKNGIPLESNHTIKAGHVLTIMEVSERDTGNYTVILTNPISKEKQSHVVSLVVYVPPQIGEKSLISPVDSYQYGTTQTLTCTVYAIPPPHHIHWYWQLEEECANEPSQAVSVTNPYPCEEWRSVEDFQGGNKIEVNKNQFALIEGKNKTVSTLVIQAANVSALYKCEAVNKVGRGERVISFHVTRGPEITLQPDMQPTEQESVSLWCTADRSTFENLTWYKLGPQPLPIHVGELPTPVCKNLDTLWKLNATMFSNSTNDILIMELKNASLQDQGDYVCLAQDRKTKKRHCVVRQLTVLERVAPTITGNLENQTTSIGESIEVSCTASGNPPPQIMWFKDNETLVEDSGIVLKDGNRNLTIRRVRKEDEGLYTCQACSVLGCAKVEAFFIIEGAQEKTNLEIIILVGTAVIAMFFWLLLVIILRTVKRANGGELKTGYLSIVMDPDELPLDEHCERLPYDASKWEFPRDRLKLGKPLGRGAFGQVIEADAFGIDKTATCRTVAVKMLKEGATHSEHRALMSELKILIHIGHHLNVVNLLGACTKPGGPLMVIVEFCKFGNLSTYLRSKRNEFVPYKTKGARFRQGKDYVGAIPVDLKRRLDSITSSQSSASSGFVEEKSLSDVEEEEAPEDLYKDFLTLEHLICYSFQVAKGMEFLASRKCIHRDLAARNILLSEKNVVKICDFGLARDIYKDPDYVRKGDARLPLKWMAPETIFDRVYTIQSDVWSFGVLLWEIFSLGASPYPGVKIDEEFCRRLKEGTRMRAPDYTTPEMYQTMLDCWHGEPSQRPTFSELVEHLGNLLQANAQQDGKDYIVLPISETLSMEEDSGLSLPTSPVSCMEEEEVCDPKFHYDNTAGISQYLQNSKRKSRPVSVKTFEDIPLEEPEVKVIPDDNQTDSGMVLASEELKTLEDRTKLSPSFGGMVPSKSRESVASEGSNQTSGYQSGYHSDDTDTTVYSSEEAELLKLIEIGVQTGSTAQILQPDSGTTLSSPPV

PDGFR-β [5] = target: T5, PDGFR-β (Homo sapiens, UniProt P09619); assay: Biochemical tyrosine kinase assay (trans-phosphorylation, GST-fusion protein); conditions: in vitro kinase activity, ± SD; read-out: IC50 PDGFR-b
T5 construct: 557-end; purchased Sigma Aldrich G8671

ZR75-1 = assay: MTT cytotoxicity assay; assay type: cell-based; conditions: Homo sapiens, ZR-75-1
[6] = Pharmacokinetic evaluation in blood by LC-MS/MS; assay type: in vivo, female NOD/SCID mice; conditions: for AUC(0-t) / Tmax / Cmax: 100 umol/kg; for AUC(0-t) / Cmax: ± S.D.; for AUC(0-t): read-out: AUC0-24
Procedure: The in vitro efficacy of SAP was followed by its pharmacokinetic evaluation in mice. Initially, the PK parameters of SAP were compared in an oral versus IP administration (Figure 3).
Figure 3 Pharmacokinetic evaluation of SAP Female NOD/SCID mice (n = 6) were dosed per os or IP with SAP (100 μmol/Kg) and blood samples were collected at selected time points. Drug levels of SAP were monitored by LC-MS/MS. The AUC for each treatment was calculated as a measure of drug exposure over time. TEXT PRINTED IN THE PICTURE: SAP: Cmax (μmol/L) (± S.D.): 0.2 (± 0.1) (Administration Route: per os; Dose (μmol/Kg): 100); tmax (h): 1 (Administration Route: per os; Dose (μmol/Kg): 100); AUC0-24 (± S.D.) (h) x (μmol/L): 2.5 (± 2.3) (Administration Route: per os; Dose (μmol/Kg): 100); Cmax (μmol/L) (± S.D.): 27 (± 3.6) (Administration Route: Intraperitoneal; Dose (μmol/Kg): 100); tmax (h): 0.25 (Administration Route: Intraperitoneal; Dose (μmol/Kg): 100); AUC0-24 (± S.D.) (h) x (μmol/L): 50.3 (± 15.3) (Administration Route: Intraperitoneal; Dose (μmol/Kg): 100)
All animal procedures were approved by the Bioethical Committee of BRFAA based on the European Directive 86/609. For pharmacokinetic studies, female NOD/SCID mice (Charles River, Italy) were used (8–10 weeks old, n = 6 per group). Dosing solutions of SAP (100 μmol/Kg) were prepared in 20% 2-hydroxypropyl β-Cyclodextrin in sterile water (HP-b-CD). SAP was administered intraperitoneally (IP) or orally and blood samples were collected and prepared as described previously.

FLT3 = target: T6, FLT3 (Homo sapiens, UniProt P36888); assay: Biochemical tyrosine kinase assay (trans-phosphorylation, GST-fusion protein); conditions: in vitro kinase activity, ± SD
T6 construct: 571–993; purchased Sigma Aldrich F6432
T6 sequence (P36888 571-993): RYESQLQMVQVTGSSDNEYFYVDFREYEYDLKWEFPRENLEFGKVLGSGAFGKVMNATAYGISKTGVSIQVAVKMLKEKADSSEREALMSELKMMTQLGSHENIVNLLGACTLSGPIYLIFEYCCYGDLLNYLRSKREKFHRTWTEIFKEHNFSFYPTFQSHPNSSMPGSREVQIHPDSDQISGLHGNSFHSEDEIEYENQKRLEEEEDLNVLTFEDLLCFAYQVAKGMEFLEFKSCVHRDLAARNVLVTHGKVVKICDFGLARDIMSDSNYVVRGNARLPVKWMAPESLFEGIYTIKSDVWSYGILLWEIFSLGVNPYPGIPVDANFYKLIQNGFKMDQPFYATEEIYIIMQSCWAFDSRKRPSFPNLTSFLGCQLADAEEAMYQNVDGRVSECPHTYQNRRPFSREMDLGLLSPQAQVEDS

[7] = test system: panel of BrCa cell lines and HUVEC; assay: MTT cytotoxicity assay, summary over all cell lines; assay type: cell-based; conditions: Homo sapiens, range over six BrCa cell lines and HUVEC
HCC1954 xenograft [8] = conditions: HCC1954, 100 μmol/Kg/day IP; for average tumor size at d18: 18 days, vehicle 428 ± 101; for neo-angiogenesis upon sacrifice: d18; for average tumor weight upon sacrifice (d18): vehicle 0.26 ± 0.07
MCF7 = assay: MTT cytotoxicity assay; assay type: cell-based; conditions: Homo sapiens
[9] = Hematotoxicity, blood analysis; conditions: 100 μmol/Kg daily IP, one week; vehicle 2.90 ± 0.8
MDA-MB-231 = assay: Wound healing/migration assay; assay type: cell-based; conditions: various concentrations, 24 hours
SKBR3 = assay: MTT cytotoxicity assay; assay type: cell-based; conditions: Homo sapiens, SK-BR-3
PDGFR-β [10] = target: T7, PDGFR-β (Mus musculus, UniProt P05622); assay: Cellular ligand-dependent autophosphorylation assay (Western blot) in NIH/3T3; assay type: cell-based; conditions: NIH/3T3, PDGF-BB stimulated, ± SD
T7 construct: host or cells: NIH/3T3
T7 sequence (P05622 32-1098): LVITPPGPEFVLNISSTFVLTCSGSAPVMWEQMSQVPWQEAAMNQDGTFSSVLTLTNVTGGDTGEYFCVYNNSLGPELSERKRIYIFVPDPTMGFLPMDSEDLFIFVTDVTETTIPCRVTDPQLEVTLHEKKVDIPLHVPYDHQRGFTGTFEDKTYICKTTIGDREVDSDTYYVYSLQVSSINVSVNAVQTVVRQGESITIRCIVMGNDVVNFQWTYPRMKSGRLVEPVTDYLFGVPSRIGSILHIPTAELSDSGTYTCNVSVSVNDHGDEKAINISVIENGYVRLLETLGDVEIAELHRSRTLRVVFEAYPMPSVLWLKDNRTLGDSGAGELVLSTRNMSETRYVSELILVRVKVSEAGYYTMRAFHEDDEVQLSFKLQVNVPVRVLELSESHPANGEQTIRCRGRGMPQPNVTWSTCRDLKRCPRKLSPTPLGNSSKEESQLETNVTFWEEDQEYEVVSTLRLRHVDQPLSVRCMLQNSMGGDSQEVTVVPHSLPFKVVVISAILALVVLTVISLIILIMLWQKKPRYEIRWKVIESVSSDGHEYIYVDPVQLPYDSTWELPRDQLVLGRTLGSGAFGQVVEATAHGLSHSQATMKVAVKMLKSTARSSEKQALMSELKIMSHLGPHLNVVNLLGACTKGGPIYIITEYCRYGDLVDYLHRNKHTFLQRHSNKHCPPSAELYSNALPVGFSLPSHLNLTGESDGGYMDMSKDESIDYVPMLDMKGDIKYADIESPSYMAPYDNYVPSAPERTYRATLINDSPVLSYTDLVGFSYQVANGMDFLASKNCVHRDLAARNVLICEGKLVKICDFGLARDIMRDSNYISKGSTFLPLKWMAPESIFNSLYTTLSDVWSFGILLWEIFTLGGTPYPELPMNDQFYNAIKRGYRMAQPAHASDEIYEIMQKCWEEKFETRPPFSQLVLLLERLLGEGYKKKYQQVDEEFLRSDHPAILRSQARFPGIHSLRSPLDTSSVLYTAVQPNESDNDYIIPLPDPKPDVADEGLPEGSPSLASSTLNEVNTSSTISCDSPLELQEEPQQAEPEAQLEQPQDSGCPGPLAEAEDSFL

[11] = test system: phosphorylation status of 18 kinases; assay: In vivo kinase activity (PathScan intracellular signaling array) in HCC1954 tumor extracts; design: species or system NOD/SCID mice; conditions: HCC1954 tumors, d18
[12] = test system: E0771 BrCa murine cell line; assay: In vivo antitumor efficacy, syngeneic model, orthotopic implantation; design: species or system C57BL/6 mice; conditions: 100 μmol/Kg daily IP
Description: as §1

VEGFR-2 [13] = target: T4, VEGFR-2; assay: Biochemical tyrosine kinase assay (trans-phosphorylation, GST-fusion protein); design: 789-end; purchased Sigma Aldrich K2643; conditions: in vitro kinase activity, ± SD
Target sequence in this assay (P35968 789-1356 limits assumed): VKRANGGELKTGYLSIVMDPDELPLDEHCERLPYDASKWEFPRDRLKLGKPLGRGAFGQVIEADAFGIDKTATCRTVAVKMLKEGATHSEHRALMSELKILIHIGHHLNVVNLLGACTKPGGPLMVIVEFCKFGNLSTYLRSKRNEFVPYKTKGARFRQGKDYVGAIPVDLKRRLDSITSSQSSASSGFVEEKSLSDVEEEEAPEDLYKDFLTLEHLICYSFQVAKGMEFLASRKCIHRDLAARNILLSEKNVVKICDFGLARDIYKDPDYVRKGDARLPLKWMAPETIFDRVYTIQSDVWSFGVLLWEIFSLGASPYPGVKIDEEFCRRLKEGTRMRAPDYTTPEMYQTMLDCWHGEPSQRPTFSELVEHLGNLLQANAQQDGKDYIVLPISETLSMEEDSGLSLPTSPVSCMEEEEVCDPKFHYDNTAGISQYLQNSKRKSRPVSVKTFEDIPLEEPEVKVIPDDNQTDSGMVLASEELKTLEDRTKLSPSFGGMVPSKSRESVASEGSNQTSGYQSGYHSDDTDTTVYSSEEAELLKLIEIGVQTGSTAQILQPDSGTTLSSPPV

HCC1954 xenograft [14] = assay: Immunohistochemistry (Ki-67, CD31) of tumor sections; assay type: in vivo, NOD/SCID mice
[15] = Cardiotoxicity, echocardiography of LV function; assay type: in vivo, C57BL/6 female mice; conditions: for %FS (Fractional Shortening) at one week post treatment: 100 μmol/Kg daily IP, vehicle 46.34 ± 0.56
[16] = test system: Tg(kdrl:gfp)^s843 transgenic embryos; assay type: in vivo; conditions: for intersomitic vessel (ISV) formation / angiogenic sprouting at 48 hpf: treated from 24 to 48 hpf
in vivo [17] = conditions: female, NOD/SCID, mouse, blood, ip, 100 μmol/Kg
[18] = design: method as in PMID 26645560; conditions: IP, equimolar dose, previous results ref 18; cited from earlier work
in vivo [19] = conditions: female, NOD/SCID, mouse, blood, ip, 100 μmol/Kg; remark: listed apart in the source
[20] = female, NOD/SCID, mouse, ip, intraperitoneal, blood
[21] = female, NOD/SCID, mouse, po, per os, blood

Which results are given for `Cc1[nH]c(/C=C2\C(=O)Nc3ccc(F)cc32)c(C)c1C(=O)NCCN1CCNCC1` [SAP]?
IC50 (KIT): 0.061 µM; uptake from fish embryos [1]: ~50%; IC50 (T47D): 6.5 µM; IC50 [2]: 0.061 to 0.102 µM; IC50 (HCC1954): 13.5 µM; tumour growth versus vehicle [3]: significant tumour growth inhibition; IC50 (HUVEC): 14.2 µM; IC50 (EGFR): > 10 µM; IC50 (RET): 0.102 µM; IC50 (VEGFR-2 [4]): 0.052 ± 0.014 µM; IC50 (PDGFR-β [5]): 0.093 µM; IC50 (ZR75-1): 14.1 µM; concentration at 8 h ([6]; female, NOD/SCID, mouse, ip, 100 μmol/Kg, intraperitoneal, 100 umol/Kg, blood, 8 h post-dose, read-out: C8 h): 0.93 ± 0.3 µM; AUC(0-t) ([6]; female, NOD/SCID, mouse, ip, intraperitoneal, 100 μmol/Kg, blood): 50.3 ± 15.3 µM·h; Tmax [6, 20]: 15 min; Cmax [6, 20]: 27 ± 3.6 µM; AUC(0-t) ([6]; female, NOD/SCID, mouse, po, per os, 100 μmol/Kg, blood): 2.5 ± 2.3 µM·h; Tmax [6, 21]: 60 min; Cmax [6, 21]: 0.2 ± 0.1 µM; time for which concentrations of at least 0.1 μmol/L are sustained post-dose ([6]; intraperitoneal, 100 umol/Kg): more than 8 h; signs of discomfort or overt toxicity in treated mice ([6]; single dose 100 μmol/Kg, per os or IP): No signs of discomfort or overt toxicity; IC50 (FLT3): 0.069 µM; IC50 [7]: 6.5 to 15.8 µM; average tumor size at d18 (HCC1954 xenograft [8]): 76 ± 52 mm^3; neo-angiogenesis upon sacrifice (HCC1954 xenograft [8]): only traces of newly formed blood vessels; average tumor weight upon sacrifice (d18) (HCC1954 xenograft [8]): 0.05 ± 0.02 g; IC50 (MCF7): 10.3 µM; white blood cell populations [9]: 2.54 ± 1.0 × 10^3 cells; MDA-MB-231 migration in wound healing assay (MDA-MB-231): inhibited MDA-MB-231 migration; IC50 (SKBR3): 15.5 µM; IC50 (PDGFR-β [10]): 0.076 ± 0.022 µM; phosphorylation status of kinases in tumor extracts versus vehicle [11]: marked downregulation of pErk1/2 (Thr202/Tyr204), pAkt (Ser473) and pGSK3 (Ser9); tumour growth versus vehicle [12]: significant tumour growth inhibition; IC50 (VEGFR-2 [13]): 0.075 µM; average number of CD31+ cells in tumor sections (HCC1954 xenograft [14]; d18, vehicle 42.4 ± 8.3): 16.6 ± 7.1; Ki-67 assessed PI (proliferation index) (HCC1954 xenograft [14]; d18, vehicle 82.3 ± 11.1): 19.2 ± 4.9%; %FS (Fractional Shortening) at one week post treatment [15]: 42.38 ± 0.76%; %FS (Fractional Shortening), baseline measurement ([15]; before treatment): 47.48 ± 0.91%; toxic or off-target morphological phenotypes ([16]; 50 μM, 24h treatment): No toxic or off-target morphological phenotypes; intersomitic vessel (ISV) formation / angiogenic sprouting at 48 hpf ([16]; 50 μM): uniform GFP expression in intersomitic vessels; also recorded: minor ISV formation inhibition; intersomitic vessel (ISV) formation / angiogenic sprouting at 48 hpf ([16]; 100 μM): inhibited angiogenic sprouting; also recorded: more profound

For `CCN(CC)CCNC(=O)c1c(C)[nH]c(/C=C2\C(=O)Nc3ccc(F)cc32)c1C` [sunitinib, reference compound], which IC50 (T47D) is on record?
Its IC50 is 11.5 µM.

And the IC50 (HCC1954)?
The IC50 was 13.9 µM.

What about the “tumour growth versus vehicle” value [3] of the same compound?
Its value is “significant tumour growth inhibition”.

And the concentration at 1 h (in vivo [17])?
The concentration at 1 h was 10.8 ± 2.1 µM.

And the IC50 (ZR75-1)?
The IC50 was 11.4 µM.

What about the “average tumor size at d18” value (HCC1954 xenograft [8]) of the same compound?
Its value is 152 ± 57 mm^3.

And the neo-angiogenesis upon sacrifice (HCC1954 xenograft [8])?
The neo-angiogenesis upon sacrifice was “only traces of newly formed blood vessels”.

And the “average tumor weight upon sacrifice (d18)” value (HCC1954 xenograft [8])?
Its value is 0.07 ± 0.03 g.

And the IC50 (MCF7)?
Its IC50 is 11.2 µM.

What about the “white blood cell populations” value [9] of the same compound?
Its value is 2.24 ± 0.5 × 10^3 cells.

And the “AUC0−24 h” value [18]?
The value was 21.4 ± 3.6 h x μmol/L.

And the Cmax [18]?
Its Cmax is 6.5 ± 0.9 µM.

And the Tmax [18]?
The Tmax was 15 min.

What about the IC50 (SKBR3) of the same compound?
The IC50 was 13.2 µM.

What about the IC50 (PDGFR-β [10]) of the same compound?
Its IC50 is 0.072 ± 0.019 µM.

What about the “phosphorylation status of kinases in tumor extracts versus vehicle” value [11] of the same compound?
Its value is “marked downregulation of pErk1/2 (Thr202/Tyr204), pAkt (Ser473) and pGSK3 (Ser9)”.

And the concentration at 1 h (in vivo [19])?
The concentration at 1 h was 10.3 ± 3.7 µM.

What about the “tumour growth versus vehicle” value [12] of the same compound?
The value was “significant tumour growth inhibition”.

What about the “%FS (Fractional Shortening) at one week post treatment” value [15] of the same compound?
The value was 45.42 ± 0.11%.
